According to ChEMBL document CHEMBL1135887, “Substituted pentacyclic carbazolones as novel muscarinic allosteric agents: synthesis and structure-affinity and cooperativity relationships” (J Med Chem, 2002):

What was measured:
[1] = target: T1, Muscarinic acetylcholine receptor M4 (Homo sapiens) (UniProt P08173); test: Subtype selectivity and the cooperativity with N-methyl Scopolamine (NMS) at Muscarinic acetylcholine receptor M4
T1 sequence (whole entry): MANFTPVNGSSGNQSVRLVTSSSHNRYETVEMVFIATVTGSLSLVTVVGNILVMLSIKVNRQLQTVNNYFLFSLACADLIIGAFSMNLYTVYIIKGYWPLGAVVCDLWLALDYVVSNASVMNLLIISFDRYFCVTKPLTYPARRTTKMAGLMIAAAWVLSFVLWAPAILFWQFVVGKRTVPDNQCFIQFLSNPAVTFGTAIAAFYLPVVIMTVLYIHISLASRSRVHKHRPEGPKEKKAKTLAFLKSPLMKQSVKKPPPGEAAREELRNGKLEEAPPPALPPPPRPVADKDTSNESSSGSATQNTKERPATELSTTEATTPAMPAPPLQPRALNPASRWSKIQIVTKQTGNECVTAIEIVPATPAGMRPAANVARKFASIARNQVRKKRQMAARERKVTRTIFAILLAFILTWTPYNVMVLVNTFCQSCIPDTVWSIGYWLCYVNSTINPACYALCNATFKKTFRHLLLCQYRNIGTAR

[2] = target: T1, Muscarinic acetylcholine receptor M4 (Homo sapiens); test: Logarithm of affinity (log 1/M) at the (N-methyl Scopolamine) NMS-liganded muscarinic acetylcholine receptor M4 by using semiquantitative equilibrium and off-rate assay
[3] = target: T2, Muscarinic acetylcholine receptor M2 (Homo sapiens) (UniProt P08172); test: Logarithm of affinity (log 1/M) at the muscarinic acetylcholine receptor M2 by using semiquantitative equilibrium and off-rate assay
T2 sequence (whole entry): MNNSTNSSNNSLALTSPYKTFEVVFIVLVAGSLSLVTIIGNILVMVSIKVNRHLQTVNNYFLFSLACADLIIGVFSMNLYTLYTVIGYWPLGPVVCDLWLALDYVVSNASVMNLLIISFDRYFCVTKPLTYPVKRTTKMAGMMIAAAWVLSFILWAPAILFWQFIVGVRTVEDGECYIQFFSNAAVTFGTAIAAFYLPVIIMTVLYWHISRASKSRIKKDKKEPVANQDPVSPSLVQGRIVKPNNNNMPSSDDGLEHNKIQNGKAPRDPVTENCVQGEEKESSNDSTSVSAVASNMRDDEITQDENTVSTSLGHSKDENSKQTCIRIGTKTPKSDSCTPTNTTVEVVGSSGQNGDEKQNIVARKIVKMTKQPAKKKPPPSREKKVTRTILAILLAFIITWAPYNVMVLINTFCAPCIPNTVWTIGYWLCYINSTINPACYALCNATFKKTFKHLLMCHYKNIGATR

[4] = target: T3, Muscarinic acetylcholine receptor M1 (Homo sapiens) (UniProt P11229); test: Logarithm of affinity (log 1/M) at the (N-methyl Scopolamine) NMS-liganded muscarinic acetylcholine receptor M1 by using semiquantitative equilibrium and off-rate assay
T3 sequence (whole entry): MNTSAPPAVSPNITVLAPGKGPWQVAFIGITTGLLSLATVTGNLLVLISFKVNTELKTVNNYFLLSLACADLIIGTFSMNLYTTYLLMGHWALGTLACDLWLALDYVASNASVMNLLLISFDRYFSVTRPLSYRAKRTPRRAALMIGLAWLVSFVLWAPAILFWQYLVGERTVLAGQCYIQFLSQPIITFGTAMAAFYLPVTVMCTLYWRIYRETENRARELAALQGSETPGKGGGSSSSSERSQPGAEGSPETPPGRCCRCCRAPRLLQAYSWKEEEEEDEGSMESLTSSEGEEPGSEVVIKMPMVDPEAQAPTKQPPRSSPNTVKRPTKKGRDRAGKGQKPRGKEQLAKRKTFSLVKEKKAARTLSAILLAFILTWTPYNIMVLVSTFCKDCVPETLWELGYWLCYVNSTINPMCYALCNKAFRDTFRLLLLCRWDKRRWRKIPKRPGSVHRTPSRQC

[5] = target: T2, Muscarinic acetylcholine receptor M2 (Homo sapiens); test: Subtype selectivity and the cooperativity with N-methyl Scopolamine (NMS) at Muscarinic acetylcholine receptor M2
[6] = target: T3, Muscarinic acetylcholine receptor M1 (Homo sapiens); test: Subtype selectivity and the cooperativity with N-methyl Scopolamine (NMS) at Muscarinic acetylcholine receptor M1; Activity range is 0.2-0.8
[7] = target: Muscarinic acetylcholine receptor M3 (Homo sapiens) (UniProt P20309); test: Logarithm of affinity (log 1/M) at the muscarinic acetylcholine receptor M3 by using semiquantitative equilibrium and off-rate assay
Muscarinic acetylcholine receptor M3 (Homo sapiens), sequence (P20309 whole entry, looked up): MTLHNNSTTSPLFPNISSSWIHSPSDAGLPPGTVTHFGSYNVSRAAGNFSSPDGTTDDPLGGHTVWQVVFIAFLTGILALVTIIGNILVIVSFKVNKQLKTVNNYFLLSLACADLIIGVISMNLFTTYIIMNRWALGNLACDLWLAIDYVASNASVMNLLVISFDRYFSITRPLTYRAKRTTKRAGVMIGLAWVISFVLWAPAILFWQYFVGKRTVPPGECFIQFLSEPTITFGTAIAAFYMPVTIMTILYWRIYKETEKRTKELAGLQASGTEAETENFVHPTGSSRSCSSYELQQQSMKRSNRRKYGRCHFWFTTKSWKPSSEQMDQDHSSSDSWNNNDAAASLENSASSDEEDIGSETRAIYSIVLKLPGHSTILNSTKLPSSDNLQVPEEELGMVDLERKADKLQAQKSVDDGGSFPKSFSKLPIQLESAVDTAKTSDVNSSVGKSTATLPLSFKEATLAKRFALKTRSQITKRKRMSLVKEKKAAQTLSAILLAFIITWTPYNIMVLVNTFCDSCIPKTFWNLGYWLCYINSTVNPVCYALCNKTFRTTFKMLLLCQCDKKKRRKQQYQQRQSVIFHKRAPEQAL

[8] = target: Muscarinic acetylcholine receptor M3 (Homo sapiens) (UniProt P20309); test: Logarithm of affinity (log 1/M) at the (N-methyl Scopolamine) NMS-liganded muscarinic acetylcholine receptor M3 by using semiquantitative equilibrium and off-rate assay
[9] = target: T3, Muscarinic acetylcholine receptor M1 (Homo sapiens); test: Logarithm of affinity (log 1/M) at the free muscarinic acetylcholine receptor M1 by using semiquantitative equilibrium and off-rate assay
[10] = target: T2, Muscarinic acetylcholine receptor M2 (Homo sapiens); test: Logarithm of affinity (log 1/M) at the (N-methyl Scopolamine) NMS-liganded muscarinic acetylcholine receptor M2 by using semiquantitative equilibrium and off-rate assay
[11] = target: T1, Muscarinic acetylcholine receptor M4 (Homo sapiens); test: Logarithm of affinity (log 1/M) at the muscarinic acetylcholine receptor M4 by using semiquantitative equilibrium and off-rate assay
[12] = target: Muscarinic acetylcholine receptor M3 (Homo sapiens) (UniProt P20309); test: Subtype selectivity and the cooperativity with N-methyl Scopolamine (NMS) at muscarinic acetylcholine receptor M3; Activity range is 0.2-0.8
[13] = target: T3, Muscarinic acetylcholine receptor M1 (Homo sapiens); test: Subtype selectivity and the cooperativity with N-methyl Scopolamine (NMS) at Muscarinic acetylcholine receptor M1
[14] = target: Muscarinic acetylcholine receptor M3 (Homo sapiens) (UniProt P20309); test: Subtype selectivity and the cooperativity with N-methyl Scopolamine (NMS) at Muscarinic acetylcholine receptor M3; […]
[15] = target: T3, Muscarinic acetylcholine receptor M1 (Homo sapiens); test: Subtype selectivity and the cooperativity with N-methyl Scopolamine (NMS) at Muscarinic acetylcholine receptor M1; Activity range is 1.2-3
[16] = target: T2, Muscarinic acetylcholine receptor M2 (Homo sapiens); test: Subtype selectivity and the cooperativity with N-methyl Scopolamine (NMS) at Muscarinic acetylcholine receptor M2; Activity range is 1.2-3
[17] = target: T1, Muscarinic acetylcholine receptor M4 (Homo sapiens); test: Subtype selectivity and cooperativity with N-methyl Scopolamine (NMS) at Muscarinic acetylcholine receptor M4; Activity range is 1.2-3
[18] = target: T1, Muscarinic acetylcholine receptor M4 (Homo sapiens); test: Subtype selectivity and the cooperativity with N-methyl Scopolamine (NMS) at Muscarinic acetylcholine receptor M4; Activity range is 0.81-1.19
[19] = target: T1, Muscarinic acetylcholine receptor M4 (Homo sapiens); test: Subtype selectivity and the cooperativity with N-methyl Scopolamine (NMS) at Muscarinic acetylcholine receptor M4; Activity range is 0.2-0.8

Cooperativity [1]	Log 1/M [2]	Log 1/M [3]	Log 1/M [4]	Cooperativity [5]	Cooperativity [6]	Log 1/M [7]	Log 1/M [8]	Log 1/M [9]	Log 1/M [10]	Log 1/M [11]	Cooperativity [12]	Cooperativity [13]	Cooperativity [14]	Cooperativity [15]	Cooperativity [16]	Cooperativity [17]	Cooperativity [18]	Cooperativity [19]	SMILES
> 3	5.32	5.31	4.57	> 3	0.8	4.51	3.94	5.43	5.6	5.39	0.8								O=C(O)c1ccc2c(c1)c1c3c(cc4c1n2C(=O)CC4)CNCC3
> 3	6.13	5.99	6.11	> 3		5.43	5.27	5.84	6.28	5.6		> 3	1.19						O=C1CCc2cc3c(c4c5c(O)cccc5n1c24)CCNC3
> 3	6.47	6.46	6.51			5.39	5.48	6.06	6.81	5.61			1.19	3	3				O=C1CCc2cc3c(c4c5ccc(Cl)cc5n1c24)CCNC3
	5.48	5.51	5.7		0.8	5.78	4.69	5.85	5.57	5.31	0.8				3	3			O=C1CCc2cc3c(c4c5ccccc5n1c24)CNCC3
	5.79	6.21	5.54		0.8	4.92	4.83	6.65	6.16	5.94	0.8				3		1.19		COc1cccc2c1c1c3c(cc4c1n2C(=O)CC4(C)C)CNCC3
	5.57	5.96	5.23		0.8	5.04	4.54	5.78	6.15	5.6	0.8				3		1.19		COc1ccc2c(c1)c1c3c(cc4c1n2C(=O)CC4)CNCC3
	5.25	5.36	5.38		0.8	5.06	4.37	5.49	5.67	5.43	0.8				3			0.8	O=C1CCc2cc3c(c4c5cccc(O)c5n1c24)CCNC3
	5.96	6.22	6.05		0.8	5.11	4.9	5.97	6.37	5.86	0.8				3	3			COC(=O)c1c2c(c3c4cc(OC)c(OC)cc4n4c3c1CCC4=O)CCNC2
	5.58	5.5	5.34		0.8	4.98	4.78	5.47	5.82	5.6	0.8				3			0.8	COC(=O)c1cccc2c1c1c3c(cc4c1n2C(=O)CC4)CNCC3
	5.35	5.53	5.35		0.8	4.56	3.93	5.47	5.79	6.12	0.8				3		1.19		O=C1CCc2cc3c(c4c5cc(CN6CCOCC6)ccc5n1c24)CCNC3
	6.66	6.6	6.58	> 3		5.92	6.05	6.24	7.12	6.26			1.19	3		3			O=C1CCc2cc3c(c4c5c(Cl)cccc5n1c24)CCNC3
	5.11	5.19	5.07		0.8	5.06	4.75	5.4	5.55	5.97	0.8				3	3			COc1cccc2c3c4c(cc5c3n(c12)C(=O)CC5)CNCC4
	5.97	6.09	5.69		0.8	5.71	5.08	5.9	6.47	6.26	0.8				3	3			Cc1ccc2c(c1)c1c3c(cc4c1n2C(=O)CC4)CNCC3
	5.37	5.31	5.49			4.88	4.64	5.49	5.49	4.99	0.8			3	3	3			O=C1CCc2cc3c(c4c5ccccc5n1c24)CCNC3
	5.36	5.24	5.62		0.8	5.23	5.29	6.01	5.34	5.38			1.19		3	3			O=C1CCc2cc3c(c4c5ccc(O)cc5n1c24)CCNC3
	5.8	5.69	5.69			4.86	4.56	5.6	5.87	5.42	0.8			3	3	3			CC1(C)CC(=O)n2c3ccccc3c3c4c(cc1c32)CCNC4
	6.14	5.9	6.07			5.33	5.2	5.84	6.35	4.64	0.8			3	3	3			COc1ccc2c3c4c(cc5c3n(c2c1)C(=O)CC5)CNCC4
